# Laboratory results as given in US20250332173A1, “COMPOUNDS AND METHODS FOR MODULATING NUCLEIC ACID SPLICING” (REMIX THERAPEUTICS INC., priority 2021, published 2025).
# Where two headings read alike, the source gives them in different places.
# Key:
# [1] = system: HTT mRNA; experiment: RT-qPCR splicing assay, HTT canonical junction (CJ) and alternative junction (AJ) mRNA; assay type: cell-based, human; settings: Homo sapiens; for AC50: increase in HTT alternative junction (AJ) mRNA, read-out: HTT AJ AC50
# Outline: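 A673 or K562 cells were treated for 24 h at 37 °C with an 11-point 3-fold compound dilution series (top final concentration 10 uM, DMSO ≤0.25%). After lysis, one-step TaqMan RT-qPCR quantified junction transcripts, normalized to PPIA for A673 or to GAPDH/GUSB for K562.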
# [2] = system: K562 (human chronic myelogenous leukemia) cells; experiment: Cell Titer Glo 2.0 cell viability assay; assay type: cell-based; settings: Homo sapiens, K562, 72 h, K562 cells, 72 hours, Cell Titer Glo 2.0; read-out: K562 GI50
# [3] = decrease in HTT canonical junction (CJ) mRNA, RT-qPCR, read-out: HTT CJ IC50
# [4] = canonical junction qPCR panel, Table 5, read-out: HTT (decrease in CJ mRNA levels, IC50)
# [5] = Table 5 panel, canonical junction qPCR, compound concentration having 50% response in CJ decrease, read-out: HTT IC50 (decrease in CJ mRNA levels)
Compound,"IC50 [1, 3]","IC50 [1, 4]",GI50 [2],"IC50 [1, 5]",AC50 ([1]; RT-qPCR)
Cc1cn2cc(-c3cc4ccn(C5CCNCC5)c(=O)c4cn3)cc(F)c2n1 [Compound 1196],100 to 1000 nM,,100 to 1000 nM,100 to 1000 nM,100 to 1000 nM
Cc1c(O)c(-c2ccc3c(=O)n(C4CCNCC4)cc(C)c3n2)cc2cn(C)nc12 [Compound 1284],100 to 1000 nM,< 100 nM,< 100 nM,,< 100 nM
Cc1cn(C2CCNCC2)c(=O)c2ccc(-c3cc4cn(C)nc4c(F)c3O)nc12 [Compound 1285],< 100 nM,< 100 nM,< 100 nM,,< 100 nM
Cc1cn2cc(-c3ncc4c(=O)n(C5CCNC5)ccc4n3)cc(C#N)c2n1 (centres unmarked) [Compound 1221],100 to 1000 nM,,100 to 1000 nM,100 to 1000 nM,100 to 1000 nM
"Cc1cc(-c2cc3ccn(C4CCN(C)CC4)c(=O)c3cn2)cc2cn(C)nc12 [Compound 1206, 6-(2,7-dimethyl-2H-indazol-5-yl)-2-(1-methylpiperidin-4-yl)-2,7-naphthyridin-1(2H)-one]",> 10000 nM,,1000 to 10000 nM,> 10000 nM,> 10000 nM
Cc1cn2cc(-c3ncc4c(=O)n(C5CCNC5)ccc4n3)c(O)c(C)c2n1 (centres unmarked) [Compound 1227],> 10000 nM,,1000 to 10000 nM,> 10000 nM,> 10000 nM
Cc1cn2cc(-c3ncc4c(=O)n(C5CCNC5)ccc4n3)cc(F)c2n1 (centres unmarked) [Compound 1215],> 10000 nM,,1000 to 10000 nM,> 10000 nM,> 10000 nM
Cc1c(O)c(-c2ncc3c(=O)n(C4CCNCC4)cc(C)c3n2)cc2cn(C)nc12 [Compound 1191],100 to 1000 nM,,< 100 nM,< 100 nM,< 100 nM
Cn1cc2nc(-c3ccc4c(=O)n(C5CCNCC5)ccc4n3)c(O)cc2n1 [Compound 1296],100 to 1000 nM,< 100 nM,100 to 1000 nM,,< 100 nM
"Cc1cn2nc(-c3cc4ccn(C5CCNCC5)c(=O)c4cn3)cc(C)c2n1 [Compound 1198, 6-(2,8-dimethylimidazo[1,2-b]pyridazin-6-yl)-2-(piperidin-4-yl)-2,7-naphthyridin-1(2H)-one]",100 to 1000 nM,,100 to 1000 nM,100 to 1000 nM,100 to 1000 nM

# Now from value to compound, other results behind:
"IC50 [1, 3]","IC50 [1, 4]",GI50 [2],"IC50 [1, 5]",Compound,AC50 ([1]; RT-qPCR)
> 10000 nM,> 10000 nM,1000 to 10000 nM,,Cc1cn2cc(-c3cc(F)c4c(=O)n([C@@H]5CNC[C@H]5F)ccc4c3)cc(F)c2n1 [Compound 1456],> 10000 nM
> 10000 nM,1000 to 10000 nM,< 100 nM,,Cc1c(O)c(-c2ncc3c(=O)n(C45CCC(N)(CC4)C5)ccc3n2)cc2cn(C)nc12 [Compound 1428],1000 to 10000 nM
100 to 1000 nM,100 to 1000 nM,100 to 1000 nM,,"Cn1cc2cc(-c3ccc4c(=O)n([C@@H]5CCNC5)ccc4n3)c(O)c(F)c2n1 [Compound 1452, 2-(7-fluoro-6-hydroxy-2-methyl-indazol-5-yl)-6-[(3R)-pyrrolidin-3-yl]-1,6-naphthyridin-5-one]",100 to 1000 nM
1000 to 10000 nM,100 to 1000 nM,100 to 1000 nM,,"Cc1c(O)c(-c2ncc3c(=O)n(C4CCC(N)CC4)ccc3n2)cc2cn(C)nc12 (centres unmarked) [Compound 1300, 6-((1s,4s)-4-aminocyclohexyl)-2-(6-hydroxy-2,7-dimethyl-2H-indazol-5-yl)pyrido[4,3-d]pyrimidin-5(6H)-one]",100 to 1000 nM
1000 to 10000 nM,100 to 1000 nM,100 to 1000 nM,,"Cc1c(O)c(-c2ncc3c(=O)n([C@@H]4CCN[C@H](C)C4)ccc3n2)cc2cn(C)nc12 [Compound 1434, 2-(6-hydroxy-2,7-dimethyl-indazol-5-yl)-6-(2-methyl-4-piperidyl)pyrido[4,3-d]pyrimidin-5-one]",100 to 1000 nM
1000 to 10000 nM,100 to 1000 nM,100 to 1000 nM,,"Cc1c(O)c(-c2ncc3c(=O)n(C4C[C@@H](C)N[C@H](C)C4)ccc3n2)cc2cn(C)nc12 (stereo partly drawn) [Compound 1454, 6-[(2R,6R)-2,6-dimethyl-4-piperidyl]-2-(6-hydroxy-2,7-dimethyl-indazol-5-yl)pyrido[4,3-d]pyrimidin-5-one]",100 to 1000 nM
100 to 1000 nM,100 to 1000 nM,< 100 nM,,"Cc1c(O)c(-c2ncc3c(=O)n(C4C[C@H](C)N[C@@H](C)C4)ccc3n2)cc2cn(C)nc12 (stereo partly drawn) [Compound 1455, 6-[(2S,6S)-2,6-dimethyl-4-piperidyl]-2-(6-hydroxy-2,7-dimethyl-indazol-5-yl)pyrido[4,3-d]pyrimidin-5-one]",100 to 1000 nM
